Test results: patent publication US11076600B2, “Mixtures of cis-jasmone and bacillus amyloliquefaciens” (BASF SE, priority 2015, dated 2021)

Columns and labels:
Type in all cases: in vivo
[1] = system: root knot nematodes (Meloidogyne incognita/acrita); assay: Field trial: yield improvement against root knot nematode in cotton after seed treatment; conditions: cotton (PhytoGen PHY 499 WRF) seed treatment; per 100 kg of seed: MBI600 1*10^11 CFU, cis-jasmone 0.2 g ai; harvest yield (pounds/acre) converted into % of untreated control; 4 replicates
From the text: (§1) To establish, whether a synergistic effect is present, the expected efficacy has to be calculated and compared to the observed efficacy of the mixture according to the invention.
(§2) Synergism can be described as an interaction where the combined effect of two or more compounds is greater than the sum of the individual effects of each of the compounds. The presence of a synergistic effect in terms of percent control, between two mixing partners (X and Y) can be calculated using the Colby equation (Colby, S. R., 1967, Calculating Synergistic and Antagonistic Responses in Herbicide Combinations, Weeds, 15, 20-22):
(§3) X=Observed efficacy (in % of Untreated Control) of compound 1
(§4) Y=Observed efficacy (in % of Untreated Control) of compound 2
(§5) E=Calculated (i.e. expected) efficacy (in % of Untreated Control)
(§6) When the observed efficacy (%) is greater than the calculated efficacy (E) according to Colby (%), then the combined effect is synergistic.
For evaluating control of root knot nematodes (Meloidogyne incognita/acrita) in cotton, cotton seeds (variety PhytoGen PHY 499 WRF) were treated with cis-jasmone, MBI600 (Bacillus amyloliquefaciens ssp. plantarum MBI600), or a mixture thereof.
(§7) Seeds were placed in a plastic cup and the compounds, or the mixture thereof, was dosed on the seeds with an application rate of 0.2 g of cis-jasmone per 100 kg of seeds, and 1*10^11 CFU of MBI600 per 100 kg of seeds. […]

[2] = system: soybean cyst nematodes (Heterodera glycines); assay: Field trial: yield improvement against soybean cyst nematode in soybean after seed treatment; conditions: soybean (Dyna-Gro 39RY43) seed treatment; per 100 kg of seed: MBI600 1*10^11 CFU, cis-jasmone 0.2 g ai; harvest yield (bushels/acre) converted into % of untreated control; 4 replicates
From the text: as §1, §2, §3, §4, §5, §6
For evaluating control of soybean cyst nematodes (Heterodera glycines) in soybean, soybean seeds (variety Dyna-Gro 39RY43) were treated with cis-jasmone, MB1600 (Bacillus amyloliquefaciens ssp. plantarum MB1600), or a mixture thereof.
as §7

[3] = system: root knot nematodes (Meloidogyne incognita/acrita); assay: Field trial: yield improvement against root knot nematode in corn after seed treatment; conditions: corn (NG6247MQKZ, NF5334MQKZ, NG4549MQKZ) seed treatment; per 100 kg of seeds: MBI600 1*10^11 CFU, cis-jasmone 0.2 g ai; harvest yield (bushels/acre) converted into % of untreated control; 4-6 replicates
From the text: as §1, §2, §3, §4, §5, §6
For evaluating control of root knot nematodes (Meloidogyne incognita/acrita) in corn, corn seeds (varieties NG6247MQKZ, NF5334MQKZ and NG4549MQKZ, respectively) were treated with cis-jasmone, MBI600 (Bacillus amyloliquefaciens ssp. plantarum MBI600), or a mixture thereof. […]

## CC/C=C\CC1=C(C)CCC1=O [Cis-jasmone]
[1]
  Observed efficacy (%): 47.2%
[2]
  Observed efficacy (%): 9%
[3]
  Observed efficacy (%): 9.2%
